According to ChEMBL document CHEMBL1201862, “PubChem BioAssay data set” (2004):
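All cell lines were grown in 96-well plates and treated with compound for 48 hours. GI50 = concentration required for 50% inhibition of growth.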 Activity calls are given as the source filed them. Cut-off read from the data, not from the text of the source: active = GI50 up to about 1.1 µM and inactive = higher.

Columns and labels:
Assay in all cases: NCI tumour cell line growth inhibition, 48 h
[1] = tested on: HOP-18
[2] = tested on: DMS-114
[3] = tested on: OVCAR-5
[4] = tested on: HL-60
[5] = tested on: SF-539
[6] = tested on: Malme-3M
[7] = tested on: SK-OV-3
[8] = tested on: DLD-1
[9] = tested on: SF-268
[10] = tested on: HCT-116
[11] = tested on: SNB-75
[12] = tested on: OVCAR-4
[13] = tested on: OVCAR-3
[14] = tested on: SF-295
[15] = tested on: LXFL 529
[16] = tested on: HCC 2998
[17] = tested on: UACC-62
[18] = tested on: EKVX
[19] = tested on: UO-31
[20] = tested on: NCI-H522
[21] = tested on: KM12
[22] = tested on: IGROV-1
[23] = tested on: U-251
[24] = tested on: OVCAR-8
[25] = tested on: SNB-78
[26] = tested on: RXF 393
[27] = tested on: A549
[28] = tested on: SK-MEL-28
[29] = tested on: HOP-92
[30] = tested on: NCI-H460
[31] = tested on: SN12C
[32] = tested on: UACC-257
[33] = tested on: ACHN
[34] = tested on: NCI-H23
[35] = tested on: MOLT-4
[36] = tested on: LOX IMVI
[37] = tested on: A498
[38] = tested on: COLO 205
[39] = tested on: RPMI-8226
[40] = tested on: CCRF-CEM
[41] = tested on: 786-0
[42] = tested on: TK-10
[43] = tested on: HCT-15
[44] = tested on: SNB-19
[45] = tested on: KM-20L2
[46] = tested on: HOP-62
[47] = tested on: SK-MEL-2
[48] = tested on: DMS-273
[49] = tested on: M14
[50] = tested on: HT-29
[51] = tested on: K562
[52] = tested on: SW-620
[53] = tested on: M19-MEL
[54] = tested on: CAKI-1
[55] = tested on: NCI-H226
[56] = tested on: SR

C=CCNC(=O)ON1C(=O)CCC1=O
GI50 [1]: > 100 µM (inactive)
GI50 [2]: > 100 µM (inactive)
GI50 [3]: > 100 µM (inactive)
GI50 [4]: > 100 µM (inactive)
GI50 [5]: > 100 µM (inactive)
GI50 [6]: > 100 µM (inactive)
GI50 [7]: > 100 µM (inactive)
GI50 [8]: > 100 µM (inactive)
GI50 [9]: > 100 µM (inactive)
GI50 [10]: > 100 µM (inactive)
GI50 [11]: > 100 µM (inactive)
GI50 [12]: > 100 µM (inactive)
GI50 [13]: > 100 µM (inactive)
GI50 [14]: > 100 µM (inactive)
GI50 [15]: > 100 µM (inactive)
GI50 [16]: > 100 µM (inactive)
GI50 [17]: > 100 µM (inactive)
GI50 [18]: > 100 µM (inactive)
GI50 [19]: > 100 µM (inactive)
GI50 [20]: 31.8 µM (inactive)
GI50 [21]: > 100 µM (inactive)
GI50 [22]: > 100 µM (inactive)
GI50 [23]: > 100 µM (inactive)
GI50 [24]: > 100 µM (inactive)
GI50 [25]: > 100 µM (inactive)
GI50 [26]: > 100 µM (inactive)
GI50 [27]: > 100 µM (inactive)
GI50 [28]: > 100 µM (inactive)
GI50 [29]: > 100 µM (inactive)
GI50 [30]: > 100 µM (inactive)
GI50 [31]: > 100 µM (inactive)
GI50 [32]: > 100 µM (inactive)
GI50 [33]: > 100 µM (inactive)
GI50 [34]: > 100 µM (inactive)
GI50 [35]: > 100 µM (inactive)
GI50 [36]: > 100 µM (inactive)
GI50 [37]: > 100 µM (inactive)
GI50 [38]: > 100 µM (inactive)
GI50 [39]: > 100 µM (inactive)
GI50 [40]: > 100 µM (inactive)
GI50 [41]: > 100 µM (inactive)
GI50 [42]: > 100 µM (inactive)
GI50 [43]: > 100 µM
GI50 [44]: > 100 µM (inactive)
GI50 [45]: > 100 µM (inactive)
GI50 [46]: > 100 µM (inactive)
GI50 [47]: > 100 µM (inactive)
GI50 [48]: > 100 µM (inactive)
GI50 [49]: > 100 µM (inactive)
GI50 [50]: > 100 µM (inactive)
GI50 [51]: > 100 µM (inactive)
GI50 [52]: > 100 µM (inactive)
GI50 [53]: > 100 µM (inactive)

O=C(Cc1nc2ccccc2o1)C(=O)Nc1ccc(Cl)cc1Cl
GI50 [1]: > 100 µM (inactive)
GI50 [2]: > 100 µM (inactive)
GI50 [3]: > 100 µM (inactive)
GI50 [5]: > 100 µM (inactive)
GI50 [6]: > 100 µM (inactive)
GI50 [7]: > 100 µM (inactive)
GI50 [8]: > 100 µM (inactive)
GI50 [9]: > 100 µM (inactive)
GI50 [10]: > 100 µM (inactive)
GI50 [11]: 49.2 µM (inactive)
GI50 [12]: > 100 µM (inactive)
GI50 [13]: > 100 µM (inactive)
GI50 [14]: > 100 µM (inactive)
GI50 [15]: > 100 µM (inactive)
GI50 [16]: > 100 µM (inactive)
GI50 [17]: > 100 µM (inactive)
GI50 [18]: > 100 µM (inactive)
GI50 [19]: > 100 µM (inactive)
GI50 [22]: > 100 µM (inactive)
GI50 [23]: > 100 µM (inactive)
GI50 [24]: > 100 µM (inactive)
GI50 [25]: > 100 µM (inactive)
GI50 [26]: > 100 µM (inactive)
GI50 [27]: > 100 µM (inactive)
GI50 [28]: > 100 µM (inactive)
GI50 [29]: > 100 µM (inactive)
GI50 [30]: > 100 µM (inactive)
GI50 [31]: > 100 µM (inactive)
GI50 [54]: > 100 µM (inactive)
GI50 [32]: > 100 µM (inactive)
GI50 [33]: > 100 µM (inactive)
GI50 [34]: > 100 µM (inactive)
GI50 [37]: > 100 µM (inactive)
GI50 [38]: > 100 µM (inactive)
GI50 [39]: > 100 µM (inactive)
GI50 [41]: > 100 µM (inactive)
GI50 [55]: > 100 µM (inactive)
GI50 [43]: > 100 µM
GI50 [44]: > 100 µM (inactive)
GI50 [45]: > 100 µM (inactive)
GI50 [46]: > 100 µM (inactive)
GI50 [47]: > 100 µM (inactive)
GI50 [48]: > 100 µM (inactive)
GI50 [56]: 13.1 µM (inactive)
GI50 [49]: > 100 µM (inactive)
GI50 [50]: > 100 µM (inactive)
GI50 [51]: > 100 µM (inactive)
GI50 [52]: > 100 µM (inactive)
GI50 [53]: > 100 µM (inactive)
